Data taken from patent publication US11787799B2 (priority 2015, dated 2023).

Tests used:
[1] = system: Enterovirus D68/US/Mo/14-18949; experiment: Antiviral assay, Enterovirus D68 strain US/Mo/14-18949 in RD cells; format: cell-based
Enterovirus D68/Fermon = experiment: Antiviral assay, Enterovirus D68 strain Fermon in RD cells; format: cell-based
[2] = system: Enterovirus D68/US/KY/14-18953; experiment: Antiviral assay, Enterovirus D68 strain US/KY/14-18953 in RD cells; format: cell-based
Coxsackievirus B2 = experiment: microbe, parasite or virus in culture; format: cell-based; conditions: read-out: EC50 CVB2
Coxsackievirus B4 = experiment: microbe, parasite or virus in culture; format: cell-based; conditions: read-out: EC50 CVB4
Poliovirus 3 = experiment: microbe, parasite or virus in culture; format: cell-based; conditions: read-out: EC50 PV3
Coxsackievirus B5 = experiment: microbe, parasite or virus in culture; format: cell-based; conditions: read-out: EC50 CVB5
Poliovirus 1 = experiment: microbe, parasite or virus in culture; format: cell-based; conditions: read-out: EC50 PV1
Coxsackievirus B1 = experiment: microbe, parasite or virus in culture; format: cell-based; conditions: read-out: EC50 CVB1
Coxsackievirus B3-H3 = experiment: microbe, parasite or virus in culture; format: cell-based; conditions: read-out: EC50 CVB3-H3
Coxsackievirus A9 = experiment: microbe, parasite or virus in culture; format: cell-based; conditions: read-out: EC50 COX A9
Echovirus 6 = experiment: microbe, parasite or virus in culture; format: cell-based; conditions: read-out: EC50 ECHO06
Enterovirus 71 = experiment: microbe, parasite or virus in culture; format: cell-based; conditions: read-out: EC50 EV71

Row | SMILES | EC50 [1] | EC50 (Enterovirus D68/Fermon) | EC50 [2] | CC50 (RD cells) | EC50 (Coxsackievirus B2) | EC50 (Coxsackievirus B4) | EC50 (Poliovirus 3) | EC50 (Coxsackievirus B5) | EC50 (Poliovirus 1) | EC50 (Coxsackievirus B1) | EC50 (Coxsackievirus B3-H3) | EC50 (Coxsackievirus A9) | EC50 (Echovirus 6) | EC50 (Enterovirus 71) | CC50 (HeLa-RW cells) | CC50 (LLC cells)
1 | CC(C)n1ncc2c(C(=O)Nc3ccccc3F)cc(-c3nccs3)nc21 [JX-007] | 0.66 ± 0.1 µM | 0.8 ± 0.28 µM | 1.2 µM | > 200 µM |  |  |  |  |  |  |  |  |  |  |  | 
2 | CC(C)(C)n1ncc2c(C(=O)Nc3ccccc3F)cc(-c3cccs3)nc21 [JX-013] | 1.07 ± 0.23 µM | 1.33 ± 0.23 µM | 1.8 ± 0.44 µM | > 200 µM |  |  |  |  |  |  |  |  |  |  |  | 
3 | CC(C)n1ncc2c(C(=O)Nc3cc(F)cc(F)c3)cc(-c3cccs3)nc21 [JX-016] |  |  |  |  | > 10 µM | > 10 µM | > 10 µM | > 10 µM | > 10 µM | > 10 µM | > 10 µM |  |  |  |  | 
4 | CC(C)n1ncc2c(C(=O)Nc3cc(F)ccc3F)cc(-c3cccs3)nc21 [JX-018] |  |  |  |  |  |  | > 25 µM |  | > 25 µM |  | 2.7 ± 0.4 µM | 2.4 µM | 2.6 ± 0.3 µM | 3.5 µM | > 200 µM | 100 µM
5 | CC(C)n1ncc2c(C(=O)Nc3cccc(F)c3F)cc(-c3cccs3)nc21 [JX-019] |  |  |  |  |  |  | > 25 µM |  | > 25 µM |  | 2.7 ± 0.4 µM |  | 2 ± 0.6 µM | 3 µM | > 200 µM | 75 µM
6 | CC(C)n1ncc2c(C(=O)Nc3c(F)cc(F)cc3F)cc(-c3cccs3)nc21 [JX-020] |  |  |  |  |  | 3.1 µM | > 25 µM | 2.3 µM | > 25 µM | 6 µM | 1.8 ± 0.7 µM | 2.4 µM | 2.4 µM | 3 µM | > 200 µM | > 200 µM
7 | CC(C)n1ncc2c(C(=O)Nc3ccccc3S(N)(=O)=O)cc(-c3cccs3)nc21 [JX-033] |  |  |  |  | 3.9 ± 1.1 µM | 3.1 ± 0.1 µM | > 25 µM | 2.7 ± 0.6 µM | > 25 µM | 3.9 ± 1.1 µM | 2.6 ± 0.4 µM | 2.4 µM | 2.4 µM | 2.5 ± 0.7 µM | 10 µM | 25 µM
8 | CC(C)n1ncc2c(C(=O)Nc3ccc(F)cc3)cc(C3CC3)nc21 [JX-038] |  |  |  |  | 4.7 µM |  | > 10 µM |  | > 10 µM | 4.7 µM | 4.7 µM | 3 µM | 3.9 µM | 3.2 ± 0.1 µM | 10 µM | 12.5 µM
9 | CC(C)n1ncc2c(C(=O)Nc3ccncc3)cc(-c3cccs3)nc21 [JX-042] |  |  |  |  | 0.6 µM | 0.6 µM | > 10 µM | 0.6 µM | > 10 µM | 0.6 µM | 0.6 µM | 0.5 µM | 0.2 µM | 0.4 µM | 6 µM | 6.25 µM
10 | CC(C)n1ncc2c(C(=O)Nc3cccc(S(N)(=O)=O)c3)cc(C3CC3)nc21 [JX-055] | 0.4 ± 0.2 µM | 0.7 ± 0.2 µM | 0.73 ± 0.12 µM | > 200 µM |  |  |  |  |  |  |  |  |  |  |  | 
11 | CC(C)n1ncc2c(C(=O)Nc3cccnc3)cc(-c3ccsc3)nc21 [JX-060] |  |  |  |  | 0.6 µM | 0.6 µM | > 10 µM | 0.6 µM | > 10 µM | 0.6 µM | 0.6 µM |  |  | 2.4 µM | 18 µM | 37 µM
12 | CC(C)n1ncc2c(C(=N)Nc3cccnc3)cc(-c3cccs3)nc21 [JX-065] | 4.7 ± 1.6 µM | 6.3 µM | 6.3 µM | 75 µM |  |  |  |  |  |  |  |  |  |  |  | 
13 | CC(C)n1ncc2c(C(=N)Nc3ccc(F)cc3)cc(-c3cccs3)nc21 [JX-067] | 1.27 ± 0.12 µM | 1.6 µM | 2.27 ± 0.23 µM | 100 µM |  |  |  |  |  |  |  |  |  |  | 18 µM | 
14 | CC(C)n1ncc2c(C(=O)Nc3ccc(F)cn3)cc(-c3cccs3)nc21 [JX-075] | < 0.4 µM | < 0.4 µM | < 0.4 µM | 25 µM |  |  | > 10 µM |  | > 10 µM |  | 0.7 ± 0.1 µM |  |  | 1.2 µM | 37.5 µM | > 200 µM
